Where two headings read alike, the source gives them in different places.
Legend:
CD80 = CD80 detection on membrane of co-cultured THP-1; assay type: cell-based, human; details: 1:5 HT-29/THP-1; 24 h; relative to non-treated co-cultured THP-1
Source text: Reducing the expression of CD11b has become a promising target for immune modulation in anticancer therapies. For that reason, we decided to study the effect of our compounds on CD11b in THP-1 cells co-cultured with HT-29. We also determined the relative amount of CD80, a common surface marker for monocytes.
The results are related to non-treated THP-1 cells when they were co-cultured with HT-29.
The action of the compounds on CDs in co-cultured THP-1 immune cells with cancer cell line HT-29 was tested by treating them with the compounds for 24 h/48 h (see Section 4.2.5). Surface CD11b and CD80 was determined by collecting THP-1 with trypsin, fixing with formaldehyde and staining with FITC Mouse monoclonal Anti-Human CD80 (Sigma-Aldrich SAB4700142) and Alexa Fluor® 647 Rabbit monoclonal Anti-CD11b (Merck #MABF366, Rahway, NJ, USA).

PD-L1 = target: T1, PD-L1 (Homo sapiens, UniProt Q9NZQ7); test: PD-L1 relative quantification by flow cytometry in HT-29 cells; assay type: cell-based; details: for inhibition rate of PD-L1: HT-29, total PD-L1, dose not stated; for total PD-L1 (%) expression: HT-29 cells, 24 h, relative to DMSO control = 100
T1 construct: assess the effect of our new ureas on these two proteins only on the HT-29 cancer cell line through the use of flow cytometry; endogenous in cells; host or cells: HT-29
T1 sequence (Q9NZQ7 19-290): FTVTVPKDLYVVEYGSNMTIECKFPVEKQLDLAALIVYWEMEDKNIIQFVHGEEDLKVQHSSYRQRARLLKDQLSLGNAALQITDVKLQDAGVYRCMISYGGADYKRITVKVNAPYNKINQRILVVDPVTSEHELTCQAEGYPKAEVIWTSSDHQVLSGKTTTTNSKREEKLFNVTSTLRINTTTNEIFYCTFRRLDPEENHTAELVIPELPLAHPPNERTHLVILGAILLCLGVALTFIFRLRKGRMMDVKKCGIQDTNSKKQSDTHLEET
Description: The cells were incubated for a period of time of one day with doses of each of the selected compounds at two different doses: 20 and 100 µM concentrations.
The effects of the compounds on the target in the cancer cell lines compounds were tested using 20 and 100 µM doses. For that, 10^5 cells per well were seeded on a 12-well plate for 24 h with the corresponding dose of the tested compound in a total volume of 500 μL of cell media. To determine the total PD-L1 and VEGFR-2, the cells were collected and fixed with 4% in a PBS of formaldehyde. After this, a treatment with 0.5% in PBS Triton^TM X-100 permeabilized the membranes. Finally, the cells were treated with FITC Mouse monoclonal Anti-Human VEGFR-2 (ab184903) and Alexa Fluor® 647 Rabbit monoclonal Anti-PD-L1 (ab215251).
To determine surface PD-L1 and VEGFR-2, the assay used was similar to the above but avoided the permeabilization step (Triton^TM X-100).

Jurkat T-cells = test: MTT cell proliferation assay, Jurkat T-cells; assay type: cell-based; details: Homo sapiens, Jurkat, 48 h treatment
Description: (§1) The action on cell proliferation caused by our developed compounds was studied using an MTT assay using the human tumor cell lines of HT-29 (colon adenocarcinoma) and A-549 (pulmonary adenocarcinoma), as well as toward the non-tumor cell line HEK-293 (human embryonic kidney cells), Jurkat T-cells and human microvessel endothelial cells (HMEC-1).
(§2) In general, 5 × 10^3 (HT-29, A549, HMEC-1, Jurkat and HEK-293) cells per well were seeded in 96-well plates with 1:1 dilutions of the compounds in a volume of 100 μL of the cell media. The 3-(4,5-dimethylthiazol-2-yl)-2,5-diphenyltetrazolium bromide (MTT; Sigma Chemical Co.) dye exclusion assay was performed, and after 48 h (37 °C, 5% CO2 in a humid atmosphere), 10 μL of MTT (5 mg/mL in phosphate-buffered saline, PBS) was added to each well and incubated for 3 h at 37 °C. After the supernatant was discarded, we solved the formazan crystal in 100 µL of DMSO. The absorbance was then registered at 550 nm using a plate lector. For all concentrations of any compound, cell viability was expressed as the percentage of the ratio between the mean absorbance of the treated cells and the mean absorbance of the untreated cells. Three to five experiments were performed to establish the IC50 values (i.e., concentration half inhibiting cell proliferation, we used GraphPad Prism 7 software).

[1] = test system: A-549 (pulmonary adenocarcinoma); test: MTT cell proliferation assay, A-549; assay type: cell-based; details: Homo sapiens, read-out: IC50 A-549
Description: After the supernatant was discarded, we solved the formazan crystal in 100 µL of DMSO. The absorbance was then registered at 550 nm using a plate lector. For all concentrations of any compound, cell viability was expressed as the percentage of the ratio between the mean absorbance of the treated cells and the mean absorbance of the untreated cells. Three to five experiments were performed to establish the IC50 values (i.e., concentration half inhibiting cell proliferation, we used GraphPad Prism 7 software).

[2] = test system: THP-1 cells co-cultured with HT-29; test: Immune cell proliferation in co-cultures of HT-29/THP-1; assay type: cell-based, human; details: 100 μM
Description: We also determined the effect of the selected compounds on the human monocyte cells THP-1 in the described co-cultures (see Table 6).
(§3) To determine the action of the compounds on cancer cell proliferation in co-culture with immune cells, 10^5 or 2 × 10^5 of the HT-29 cells line were seeded in each well of 12-well plates and left at 37 °C for 24 h. Then, the cancer cells were treated with IFN-γ (10 ng/mL; human, Invitrogen®, Waltham, MA, USA) containing 5 × 10^5 or 10^5, respectively, of THP-1 cells per well and the corresponding compound at 100 μM or DMSO for the positive control. After 24 h/48 h of incubation, the supernatants were collected to establish the alive THP-1 cells using FSC and SCC flow cytometry. In addition, cancer cells were collected with trypsin, fixed with 4% in PBS paraformaldehyde and counted using flow cytometry.

[3] = test system: human microvessel endothelial cells (HMEC-1); test: MTT cell proliferation assay, HMEC-1; assay type: cell-based; details: Homo sapiens
Description: as §1, §2

[4] = test system: HT-29 cells co-cultured with THP-1; test: Cancer cell proliferation in co-cultures of HT-29 and THP-1; assay type: cell-based, human; details: 100 μM
Description: To establish the potential of the selected compounds as immunomodulator agents, we studied the effect of the selected compounds on HT-29 cell proliferation when co-cultured with human monocytic leukemia cell line THP-1. For the study, we used different proportions of cancer and immune cells. Standard protocol proportions were 1:5 cancer/immune cells. We include a test using a 2:1 proportion of HT-29 cells to THP-1 cells. The tests were performed for two periods of time: 24 and 48 h, using 100 μM doses of the selected compounds and BMS-8 as the reference compound.
as §3

[5] = test system: HEK-293 (human embryonic kidney cells); test: MTT cell proliferation assay, HEK-293; assay type: cell-based; details: HEK293, 48 h treatment
Description: as §1, §2

| Compound | % CD80 expression in membrane of THP-1 (CD80) [%] | inhibition rate of PD-L1 (PD-L1) | total PD-L1 (%) expression (PD-L1; 20 μM) [%] | total PD-L1 (%) expression (PD-L1; 100 μM) [%] | IC50 (Jurkat T-cells; 48 h) [µM] | IC50 ([1]; A549, MTT, 48 h treatment) [µM] | THP-1 cell proliferation in co-culture ([2]; 1:5 HT-29/THP-1, 24 h) | THP-1 cell proliferation in co-culture ([2]; 1:5 HT-29/THP-1, 48 h) | THP-1 cell proliferation in co-culture ([2]; 2:1 HT-29/THP-1, 24 h) | THP-1 cell proliferation in co-culture ([2]; 2:1 HT-29/THP-1, 48 h) | IC50 ([3]; HMEC-1, 48 h, 48 h treatment) [µM] | HT-29 cancer cell proliferation in co-culture ([4]; 1:5 HT-29/THP-1, 24 h) | HT-29 cancer cell proliferation in co-culture ([4]; 1:5 HT-29/THP-1, 48 h) | HT-29 cancer cell proliferation in co-culture ([4]; 2:1 HT-29/THP-1, 24 h) | HT-29 cancer cell proliferation in co-culture ([4]; 2:1 HT-29/THP-1, 48 h) | melting point [°C] | IC50 [5] [µM] | IC50 (Jurkat T-cells) [µM] | IC50 ([1]; A549, 48 h) [µM] | IC50 ([3]; HMEC-1, 48 h treatment) [µM] |
| --- | --- | --- | --- | --- | --- | --- | --- | --- | --- | --- | --- | --- | --- | --- | --- | --- | --- | --- | --- | --- |
| COc1ccc(CCCc2cccc(NC(=O)Nc3ccccc3OC)c2)cc1 [C.14] | 92 ± 1 | 50% | 45 ± 11 | 145 ± 8 | > 100 | > 100 | 99 ± 10 | 91 ± 6 | 110 ± 7 | 86 ± 3 | > 100 | 64 ± 14 | 68 ± 8 | 82 ± 7 | 58 ± 5 | 82 to 85 | > 100 |  |  |  |
| COc1ccc(CCCc2cccc(NC(=O)Nc3ccc(OC)cc3)c2)cc1 [C.12] | 89 ± 2 | around 75% | 25 ± 5 | 96 ± 1 | > 100 | 1.2 ± 0.2 | 95 ± 18 | 90 ± 6 | 94 ± 5 | 90 ± 2 | > 100 | 84 ± 2 | 67 ± 11 | 93 ± 8 | 89 ± 10 | 181 to 183 | > 100 |  |  |  |
| COc1ccc(CCCc2cccc(NC(=O)Oc3ccccc3)c2)cc1 [C.1] | 96 ± 1 | 30% | 70 ± 16 | 91 ± 7 |  |  | 104 ± 8 | 97 ± 8 | 124 ± 6 | 113 ± 7 |  | 48 ± 8 | 52 ± 3 | 70 ± 8 | 66 ± 8 | 89 to 91 | > 100 | > 100 | > 100 | > 100 |
| COc1ccc(CCCc2cccc(NC(=O)Nc3ccc(F)cc3)c2)cc1 [C.3] | 93 ± 2 | 30% | 70 ± 4 | 222 ± 69 | > 100 | > 100 | 87 ± 8 | 78 ± 5 | 113 ± 26 | 91 ± 18 | > 100 | 78 ± 8 | 64 ± 3 | 67 ± 9 | 57 ± 5 | 181 to 183 | > 100 |  |  |  |

— article PMC10302582, “Unveiling the Potential of BenzylethyleneAryl–Urea Scaffolds for the Design of New Onco Immunomodulating Agents” (Pharmaceuticals, 2023)
